Source: ChEMBL document CHEMBL1201862, “PubChem BioAssay data set” (2004)
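Five concentrations, 48 hours, 96-well plates. The concentration for 50% growth inhibition is given as GI50.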 Activity calls are given as the source filed them. No stated cut-off is given here; in the data, active = GI50 up to about 1.1 µM and inactive = higher.

Assays:
Test in all cases: NCI anticancer screen, dose series, 48 h
[1] = system: 786-0
[2] = system: A498
[3] = system: A549
[4] = system: ACHN
[5] = system: CAKI-1
[6] = system: CCRF-CEM
[7] = system: COLO 205
[8] = system: DLD-1
[9] = system: DMS-273
[10] = system: EKVX
[11] = system: HCC 2998
[12] = system: HCT-116
[13] = system: HCT-15
[14] = system: HL-60
[15] = system: HOP-18
[16] = system: HOP-62
[17] = system: HOP-92
[18] = system: HT-29
[19] = system: IGROV-1
[20] = system: K562
[21] = system: KM-20L2
[22] = system: KM12
[23] = system: LOX IMVI
[24] = system: LXFL 529
[25] = system: M14
[26] = system: M19-MEL
[27] = system: MOLT-4
[28] = system: NCI-H226
[29] = system: NCI-H23
[30] = system: NCI-H460
[31] = system: NCI-H522
[32] = system: OVCAR-3
[33] = system: OVCAR-4
[34] = system: OVCAR-5
[35] = system: OVCAR-8
[36] = system: RPMI-8226
[37] = system: RXF 393
[38] = system: SF-268
[39] = system: SF-295
[40] = system: SF-539
[41] = system: SK-MEL-28
[42] = system: SK-MEL-2
[43] = system: SK-MEL-5
[44] = system: SK-OV-3
[45] = system: SN12C
[46] = system: SNB-19
[47] = system: SNB-75
[48] = system: SNB-78
[49] = system: SW-620
[50] = system: TK-10
[51] = system: U-251
[52] = system: UACC-257
[53] = system: UACC-62
[54] = system: UO-31
[55] = system: XF498

In the case of `NC(=O)c1cn(Cc2ccccc2)c(=O)n1Cc1ccccc1`, the GI50 [1] is reported as > 100 µM (inactive), the GI50 [2] is reported as > 100 µM (inactive) and the GI50 [3] is reported as > 100 µM (inactive). For the same molecule, the GI50 [4] was > 100 µM (inactive), the GI50 [5] was > 100 µM (inactive) and the GI50 [6] was > 100 µM (inactive). The GI50 [7] was > 100 µM (inactive), the GI50 [8] was > 100 µM (inactive) and the GI50 [9] was > 100 µM (inactive). The GI50 [10] was > 100 µM (inactive), the GI50 [11] was > 100 µM (inactive) and the GI50 [12] was > 100 µM (inactive). For the same molecule, the GI50 [13] was over 100 µM, the GI50 [14] was > 100 µM (inactive) and the GI50 [15] was > 100 µM (inactive). For the same molecule, the GI50 [16] was > 100 µM (inactive), the GI50 [17] was > 100 µM (inactive) and the GI50 [18] was > 100 µM (inactive). For the same molecule, the GI50 [19] was > 100 µM (inactive), the GI50 [20] was > 100 µM (inactive) and the GI50 [21] was > 100 µM (inactive). The GI50 [22] was > 100 µM (inactive), the GI50 [23] was > 100 µM (inactive) and the GI50 [24] was > 100 µM (inactive). The GI50 [25] was > 100 µM (inactive), the GI50 [26] was > 100 µM (inactive) and the GI50 [27] was > 100 µM (inactive). The GI50 [28] was > 100 µM (inactive), the GI50 [29] was > 100 µM (inactive) and the GI50 [30] was > 100 µM (inactive). For the same molecule, the GI50 [31] was > 100 µM (inactive), the GI50 [32] was > 100 µM (inactive) and the GI50 [33] was > 100 µM (inactive). The GI50 [34] was > 100 µM (inactive), the GI50 [35] was > 100 µM (inactive) and the GI50 [36] was > 100 µM (inactive). For the same molecule, the GI50 [37] was > 100 µM (inactive), the GI50 [38] was > 100 µM (inactive) and the GI50 [39] was > 100 µM (inactive). The GI50 [40] was > 100 µM (inactive), the GI50 [41] was > 100 µM (inactive) and the GI50 [42] was > 100 µM (inactive). For the same molecule, the GI50 [43] was > 100 µM (inactive), the GI50 [44] was > 100 µM (inactive) and the GI50 [45] was > 100 µM (inactive). The GI50 [46] was > 100 µM (inactive), the GI50 [47] was > 100 µM (inactive) and the GI50 [48] was > 100 µM (inactive). For the same molecule, the GI50 [49] was > 100 µM (inactive), the GI50 [50] was > 100 µM (inactive) and the GI50 [51] was > 100 µM (inactive). For the same molecule, the GI50 [52] was > 100 µM (inactive), the GI50 [53] was > 100 µM (inactive) and the GI50 [54] was > 100 µM (inactive). The GI50 [55] was > 100 µM (inactive).
